Reference: the NIST ThermoML archive (doi:10.1021/je700261b)

Assay: xn = mol fraction of the nth substance listed
Details: Liquid

CCCCO [butan-1-ol] + O=C=O
Details	mass density [kg/m3]
313.1 K, 1008 kPa, x2 = 0.0251	798.08
313.1 K, 2011 kPa, x2 = 0.0251	798.9
313.1 K, 3006 kPa, x2 = 0.0251	799.7
313.1 K, 4012 kPa, x2 = 0.0251	800.54
313.1 K, 5008 kPa, x2 = 0.0251	801.32
313.1 K, 6013 kPa, x2 = 0.0251	802.14
313.1 K, 7004 kPa, x2 = 0.0251	802.94
313.1 K, 8023 kPa, x2 = 0.0251	803.75
313.1 K, 9037 kPa, x2 = 0.0251	804.53
313.1 K, 9990 kPa, x2 = 0.9698	711.97
313.1 K, 10005 kPa, x2 = 0.0251	805.29
313.1 K, 11011 kPa, x2 = 0.0251	806.08
313.1 K, 11014 kPa, x2 = 0.9698	740.16
313.1 K, 12018 kPa, x2 = 0.0251	806.83
313.1 K, 12040 kPa, x2 = 0.9698	761.46
313.1 K, 12987 kPa, x2 = 0.9698	777.57
313.1 K, 13003 kPa, x2 = 0.0251	807.56
313.1 K, 14007 kPa, x2 = 0.0251	808.31
313.1 K, 14020 kPa, x2 = 0.9698	792.52
313.1 K, 15009 kPa, x2 = 0.0251	809.03
313.1 K, 15028 kPa, x2 = 0.9698	805.22
313.1 K, 16004 kPa, x2 = 0.0251	809.77
313.1 K, 16029 kPa, x2 = 0.9698	816.46
313.1 K, 17000 kPa, x2 = 0.9698	826.34
313.1 K, 17005 kPa, x2 = 0.0251	810.49
313.1 K, 18019 kPa, x2 = 0.0251	811.19
313.1 K, 18024 kPa, x2 = 0.9698	835.89
313.1 K, 19019 kPa, x2 = 0.0251	811.89
313.1 K, 19027 kPa, x2 = 0.9698	844.46
313.1 K, 20020 kPa, x2 = 0.0251	812.59
313.1 K, 20021 kPa, x2 = 0.9698	852.41
313.1 K, 21013 kPa, x2 = 0.9698	859.87
313.1 K, 21027 kPa, x2 = 0.0251	813.29
313.1 K, 22005 kPa, x2 = 0.0251	813.97
313.1 K, 22032 kPa, x2 = 0.9698	867.02
313.1 K, 23006 kPa, x2 = 0.9698	873.5
313.1 K, 23011 kPa, x2 = 0.0251	814.69
313.1 K, 24004 kPa, x2 = 0.0251	815.36
313.1 K, 24011 kPa, x2 = 0.9698	879.83
313.1 K, 25028 kPa, x2 = 0.0251	816.1
313.11 K, 1990 kPa, x2 = 0.0857	802.76
313.11 K, 3001 kPa, x2 = 0.0857	803.63
313.11 K, 4009 kPa, x2 = 0.0857	804.54
313.11 K, 5013 kPa, x2 = 0.0857	805.41
313.11 K, 6014 kPa, x2 = 0.0857	806.27
313.11 K, 7009 kPa, x2 = 0.0857	807.15
313.11 K, 8011 kPa, x2 = 0.0857	807.98
313.11 K, 9009 kPa, x2 = 0.0857	808.79
313.11 K, 10011 kPa, x2 = 0.0857	809.65
313.11 K, 10994 kPa, x2 = 0.0857	810.46
313.11 K, 12007 kPa, x2 = 0.0857	811.26
313.11 K, 13022 kPa, x2 = 0.0857	812.06
313.11 K, 13999 kPa, x2 = 0.0857	812.83
313.11 K, 15014 kPa, x2 = 0.0857	813.63
313.11 K, 16013 kPa, x2 = 0.0857	814.38
313.11 K, 16994 kPa, x2 = 0.0857	815.12
313.11 K, 18005 kPa, x2 = 0.0857	815.89
313.11 K, 19008 kPa, x2 = 0.0857	816.61
313.11 K, 20010 kPa, x2 = 0.0857	817.4
313.11 K, 20990 kPa, x2 = 0.0857	818.09
313.11 K, 22028 kPa, x2 = 0.0857	818.85
313.11 K, 22900 kPa, x2 = 0.0857	819.47
313.11 K, 23996 kPa, x2 = 0.0857	820.3
313.11 K, 25047 kPa, x2 = 0.0857	821.11
313.15 K, 9101 kPa, x2 = 0.4972	830.36
313.15 K, 10085 kPa, x2 = 0.4972	831.83
313.15 K, 11056 kPa, x2 = 0.4972	833.28
313.15 K, 12062 kPa, x2 = 0.4972	834.75
313.15 K, 13043 kPa, x2 = 0.4972	836.14
313.15 K, 14050 kPa, x2 = 0.4972	837.54
313.15 K, 15053 kPa, x2 = 0.4972	838.9
313.15 K, 16037 kPa, x2 = 0.4972	840.22
313.15 K, 17055 kPa, x2 = 0.4972	841.56
313.15 K, 18037 kPa, x2 = 0.4972	842.85
313.15 K, 19023 kPa, x2 = 0.4972	844.11
313.15 K, 20041 kPa, x2 = 0.4972	845.39
313.15 K, 21003 kPa, x2 = 0.4972	846.61
313.15 K, 22068 kPa, x2 = 0.4972	847.91
313.15 K, 23079 kPa, x2 = 0.4972	849.14
313.15 K, 24016 kPa, x2 = 0.4972	850.27
313.15 K, 25033 kPa, x2 = 0.4972	851.48
313.16 K, 10073 kPa, x2 = 0.5965	836.7
313.16 K, 10087 kPa, x2 = 0.8663	805.12
313.16 K, 11059 kPa, x2 = 0.5965	838.66
313.16 K, 11082 kPa, x2 = 0.8663	813.86
313.16 K, 12061 kPa, x2 = 0.8663	821.6
313.16 K, 12075 kPa, x2 = 0.5965	840.6
313.16 K, 13043 kPa, x2 = 0.8663	828.71
313.16 K, 13069 kPa, x2 = 0.5965	842.49
313.16 K, 14076 kPa, x2 = 0.8663	835.52
313.16 K, 14098 kPa, x2 = 0.5965	844.39
313.16 K, 15059 kPa, x2 = 0.5965	846.11
313.16 K, 15061 kPa, x2 = 0.8663	841.57
313.16 K, 16037 kPa, x2 = 0.5965	847.81
313.16 K, 16043 kPa, x2 = 0.8663	847.15
313.16 K, 17032 kPa, x2 = 0.5965	849.52
313.16 K, 17052 kPa, x2 = 0.8663	852.59
313.16 K, 18048 kPa, x2 = 0.5965	851.21
313.16 K, 18056 kPa, x2 = 0.8663	857.69
313.16 K, 19039 kPa, x2 = 0.8663	862.42
313.16 K, 19055 kPa, x2 = 0.5965	852.88
313.16 K, 20027 kPa, x2 = 0.8663	866.99
313.16 K, 20044 kPa, x2 = 0.5965	854.46
313.16 K, 21042 kPa, x2 = 0.5965	856.04
313.16 K, 21068 kPa, x2 = 0.8663	871.52
313.16 K, 22034 kPa, x2 = 0.8663	875.6
313.16 K, 22053 kPa, x2 = 0.5965	857.62
313.16 K, 23031 kPa, x2 = 0.5965	859.12
313.16 K, 23061 kPa, x2 = 0.8663	879.74
313.16 K, 24038 kPa, x2 = 0.5965	860.62
313.16 K, 24054 kPa, x2 = 0.8663	883.63
313.16 K, 25015 kPa, x2 = 0.8663	887.21
313.16 K, 25036 kPa, x2 = 0.5965	862.12
323.05 K, 1017 kPa, x2 = 0.0251	789.88
323.05 K, 2015 kPa, x2 = 0.0251	790.73
323.05 K, 3003 kPa, x2 = 0.0251	791.59
323.05 K, 4007 kPa, x2 = 0.0251	792.48
323.05 K, 5026 kPa, x2 = 0.0251	793.33
323.05 K, 5975 kPa, x2 = 0.0251	794.14
323.05 K, 7085 kPa, x2 = 0.0251	795.08
323.05 K, 7991 kPa, x2 = 0.0251	795.85
323.05 K, 9003 kPa, x2 = 0.0251	796.68
323.05 K, 10032 kPa, x2 = 0.0251	797.56
323.05 K, 10996 kPa, x2 = 0.0251	798.32
323.05 K, 11029 kPa, x2 = 0.9698	630.03
323.05 K, 12005 kPa, x2 = 0.9698	671.01
323.05 K, 12028 kPa, x2 = 0.0251	799.15
323.05 K, 12996 kPa, x2 = 0.9698	700.08
323.05 K, 13030 kPa, x2 = 0.0251	799.93
323.05 K, 14024 kPa, x2 = 0.9698	723.36
323.05 K, 14030 kPa, x2 = 0.0251	800.72
323.05 K, 15018 kPa, x2 = 0.0251	801.45
323.05 K, 15024 kPa, x2 = 0.9698	741.89
323.05 K, 16009 kPa, x2 = 0.9698	757.4
323.05 K, 16017 kPa, x2 = 0.0251	802.24
323.05 K, 17001 kPa, x2 = 0.9698	771.14
323.05 K, 17014 kPa, x2 = 0.0251	802.97
323.05 K, 18016 kPa, x2 = 0.9698	783.62
323.05 K, 18025 kPa, x2 = 0.0251	803.71
323.05 K, 19020 kPa, x2 = 0.9698	794.82
323.05 K, 19034 kPa, x2 = 0.0251	804.49
323.05 K, 20048 kPa, x2 = 0.9698	805.21
323.05 K, 20052 kPa, x2 = 0.0251	805.21
323.05 K, 21014 kPa, x2 = 0.0251	805.95
323.05 K, 21055 kPa, x2 = 0.9698	814.54
323.05 K, 22017 kPa, x2 = 0.9698	822.92
323.05 K, 22027 kPa, x2 = 0.0251	806.68
323.05 K, 23002 kPa, x2 = 0.0251	807.38
323.05 K, 23087 kPa, x2 = 0.9698	831.58
323.05 K, 24035 kPa, x2 = 0.0251	808.13
323.05 K, 24055 kPa, x2 = 0.9698	838.92
323.05 K, 25023 kPa, x2 = 0.0251	808.84
323.07 K, 1981 kPa, x2 = 0.0857	794.04
323.07 K, 3013 kPa, x2 = 0.0857	795.05
323.07 K, 4009 kPa, x2 = 0.0857	795.99
323.07 K, 5021 kPa, x2 = 0.0857	796.91
323.07 K, 6010 kPa, x2 = 0.0857	797.83
323.07 K, 6995 kPa, x2 = 0.0857	798.74
323.07 K, 7985 kPa, x2 = 0.0857	799.59
323.07 K, 9047 kPa, x2 = 0.0857	800.55
323.07 K, 10028 kPa, x2 = 0.0857	801.4
323.07 K, 11003 kPa, x2 = 0.0857	802.22
323.07 K, 12005 kPa, x2 = 0.0857	803.07
323.07 K, 12995 kPa, x2 = 0.0857	803.91
323.07 K, 14273 kPa, x2 = 0.0857	805.01
323.07 K, 15019 kPa, x2 = 0.0857	805.58
323.07 K, 15998 kPa, x2 = 0.0857	806.41
